Measurements from patent US20250197387A1, “BCL-XL DEGRADERS AND USES THEREOF” (Kymera Therapeutics, Inc., priority 2021, published 2025).

What was measured:
Assay type in all cases: cell-based
BCL-XL [1] = molecular target: T1, BCL-XL (Homo sapiens, UniProt Q07817); experiment: BCL-XL degradation assay, western blot in MOLT-4 cells, 16 h; conditions: western blot, MOLT-4 cells, 16 h; for Dmax: read-out: Bcl-xL WB in MOLT-4 degradation 16 h: Average Dmax %; for DC50: read-out: Bcl-xL WB in MOLT-4 degradation 16 h: Mean external-Abs DC50
T1 construct: endogenous in cells; host or cells: MOLT-4
T1 sequence (Q07817 whole entry): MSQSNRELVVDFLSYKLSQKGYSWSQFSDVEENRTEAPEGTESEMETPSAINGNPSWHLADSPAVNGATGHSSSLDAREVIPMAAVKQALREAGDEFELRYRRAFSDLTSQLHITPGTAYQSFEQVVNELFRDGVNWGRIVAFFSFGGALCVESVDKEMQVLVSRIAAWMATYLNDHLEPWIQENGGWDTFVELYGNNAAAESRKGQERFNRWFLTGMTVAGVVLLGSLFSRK
Summary of the method: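 MOLT-4 cells treated with compounds at 0.02-10 μM final for 16 hr at 37° C; lysates analysed by western blot with anti-BCL-xL, beta-actin and GAPDH loading controls, infrared imaging and densitometry; DC50 and Dmax % reported as letter codes.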

BCL-XL [2] = molecular target: T1, BCL-XL; experiment: Bcl-xL ELISA degradation in MOLT-4 cells, 6 h; conditions: for DC50: read-out: Bcl-xL ELISA in MOLT-4 degradation 6 h: Mean external-Abs DC50
Method: The letter codes for BCL-XL DC50 include: A (<0.01 μM); B (0.01-0.1 μM); C (>[…]); D (>0.5-1.0 μM); and E (>1.0 μM). The letter codes for Dmax % include A (>75%); B (50 to 75%); C (<50%).

MOLT-4 cells = experiment: CTG (CellTiter-Glo) cell viability assay, MOLT-4; conditions: Homo sapiens, MOLT-4, 72 h, 3 day incubation, read-out: CTG Cell Viability Assay - MOLT-4 3 day: Average external-IC50
Summary of the method: (§1)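 MOLT-4 and Caki-2 cells at 10,000 cells/well exposed 3 days at 37° C., 5% CO2 to 9 doses (1:3, top 10 μM, 0.2% DMSO). Viability by CellTiter-Glo luminescence; IC50 from three-parameter logistic fit.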

Caki-2 cells = experiment: CTG (CellTiter-Glo) cell viability assay, Caki-2; conditions: Homo sapiens, 72 h, 3 day incubation, read-out: CTG Chempartner - Caki-2 3 day: Average external-IC50
Summary of the method: as §1

Compound	Dmax (BCL-XL [1]) [%]	DC50 (BCL-XL [1]) [nM]	Dmax (BCL-XL [2]) [%]	DC50 (BCL-XL [2]) [nM]	IC50 (MOLT-4 cells) [nM]	IC50 (Caki-2 cells) [nM]
Cc1ncsc1-c1ccc(CNC(=O)[C@@H]2C[C@@H](O)CC2C(=O)[C@@H](NC(=O)C2(F)CC2)C(C)(C)C)c(OCCCCCCNC(=O)c2nc(N3CCc4cccc(C(=O)Nc5nc6ccccc6s5)c4C3)ccc2-c2cnn(CC3CCCCC3)c2C)c1 (stereo partly drawn) [I-158]	50 to 75	100 to 500	< 50	> 1000	1000 to 3000	> 10000
Cc1ncsc1-c1ccc(CNC(=O)[C@@H]2C[C@@H](O)CN2C(=O)[C@@H](NC(=O)CCOCCOCCOCCOCCOCCOCC#Cc2ccc(OCCCc3sc(N4CCc5cccc(C(=O)Nc6nc7ccccc7s6)c5C4)nc3C(=O)O)cc2)C(C)(C)C)cc1 [I-383]	> 75	10 to 100	> 75	10 to 100	100 to 1000	1000 to 10000
C#Cc1ccc(CNC(=O)[C@@H]2C[C@@H](O)CN2C(=O)[C@@H](NC(=O)CCCS(=O)(=O)NC(=O)c2nc(N(C)c3cc(C)c(Nc4nc5ccccc5s4)nn3)ccc2-c2cnn(CC3CCCCC3)c2C)C(C)(C)C)cc1 [I-340]	> 75	100 to 500	50 to 75	10 to 100	100 to 1000	> 10000
Cc1ncsc1-c1ccc(CNC(=O)[C@@H]2C[C@@H](O)CN2C(=O)[C@@H](NC(=O)C2(F)CC2)C(C)(C)C)c(OCCCCCS(=O)(=O)NC(=O)c2nc(N3CCc4cccc(C(=O)Nc5nc6ccccc6s5)c4C3)ccc2-c2cnn(CC34CC5CC(CC(C5)C3)C4)c2C)c1 [I-121]	> 75	< 10	> 75	10 to 100	< 100	100 to 1000
C#Cc1ccc(CNC(=O)[C@@H]2C[C@@H](O)CN2C(=O)[C@@H](NC(=O)CCCCS(=O)(=O)NC(=O)c2nc(N(C)c3cc(C)c(Nc4nc5ccccc5s4)nn3)ccc2-c2cnn(CC3CCCCC3)c2C)C(C)(C)C)cc1 [I-345]	> 75	100 to 500	50 to 75	100 to 500	1000 to 3000	> 10000
Cc1ncsc1-c1ccc([C@H](C)NC(=O)[C@@H]2C[C@@H](O)CN2C(=O)[C@@H](NC(=O)CCCCCCNC(=O)c2nc(N3CCc4cccc(C(=O)Nc5nc6ccccc6s5)c4C3)ccc2-c2cnn(CC3CCCCC3)c2C)C(C)(C)C)cc1 [I-96]	> 75	10 to 100	50 to 75	10 to 100	100 to 1000	> 10000
Cc1ncsc1-c1ccc(CNC(=O)[C@@H]2C[C@@H](O)CN2C(=O)[C@@H](NC(=O)C2(F)CC2)C(C)(C)C)c(OCCCCCS(=O)(=O)NC(=O)c2nc(N3CCc4cccc(C(=O)Nc5nc6cccnc6s5)c4C3)ccc2-c2cnn(CC3CCCCC3)c2C)c1 [I-187]	> 75	10 to 100	50 to 75	10 to 100	100 to 1000	> 10000
Cc1ncsc1-c1ccc([C@H](C)NC(=O)[C@@H]2C[C@@H](O)CN2C(=O)[C@@H](c2cc(OC3CCN(CCCS(=O)(=O)NC(=O)c4nc(N5CCc6cccc(C(=O)Nc7nc8ccccc8s7)c6C5)ccc4-c4cnn(CC5CCCCC5)c4C)CC3)no2)C(C)C)cc1 [I-178]	> 75	10 to 100	50 to 75	10 to 100	100 to 1000	> 10000
Cc1ncsc1-c1ccc(CNC(=O)[C@@H]2C[C@@H](O)CN2C(=O)[C@@H](NC(=O)C2(F)CC2)C(C)(C)C)c(OCCCCCS(=O)(=O)NC(=O)c2nc(N3CCc4cccc(C(=O)Nc5nc6ccccc6s5)c4C3)ccc2-c2cnn(CC3CCCCC3)c2C)c1 [I-177]	> 75	< 10	> 75	10 to 100	< 100	1000 to 10000
Cc1cc(N(C)c2ccc(-c3cnn(CC4CCCCC4)c3C)c(C(=O)NS(=O)(=O)CCCCC(=O)N[C@H](C(=O)N3C[C@H](O)C[C@H]3C(=O)N[C@@H](C)c3ccc(-c4scnc4C)cc3)C(C)(C)C)n2)nnc1Nc1nc2ccccc2s1 [I-353]	> 75	10 to 100	> 75	100 to 500	1000 to 3000	> 10000
Cc1ncsc1-c1ccc([C@H](C)NC(=O)[C@@H]2C[C@@H](O)CN2C(=O)[C@H](NC(=O)CCCCCCCS(=O)(=O)NC(=O)c2nc(N3CCc4cccc(C(=O)Nc5nc6ccccc6s5)c4C3)ccc2-c2cnn(CC(C)C)c2C)C(C)(C)C)cc1 [I-179]	> 75	10 to 100	> 75	10 to 100	100 to 1000	> 10000

The next lines start with results.

Dmax (BCL-XL [1]) [%]	DC50 (BCL-XL [1]) [nM]	Dmax (BCL-XL [2]) [%]	DC50 (BCL-XL [2]) [nM]	IC50 (MOLT-4 cells) [nM]	Compound	IC50 (Caki-2 cells) [nM]
> 75	< 10	50 to 75	10 to 100	< 100	Cc1ncsc1-c1ccc([C@H](C)NC(=O)[C@@H]2C[C@@H](O)CN2C(=O)[C@@H](NC(=O)CCCCCCC(=O)N2CCN(C[C@]3(C)CCC(c4ccc(Cl)cc4)=C(CN4CCN(c5ccc(C(=O)NS(=O)(=O)c6ccc(N[C@H](CCN7CCOCC7)CSc7ccccc7)c(S(=O)(=O)C(F)(F)F)c6)cc5)CC4)C3)CC2)C(C)(C)C)cc1 [I-397]	100 to 1000
> 75	< 10	< 50	10 to 100	< 100	Cc1ncsc1-c1ccc([C@H](C)NC(=O)[C@@H]2C[C@@H](O)CN2C(=O)[C@@H](NC(=O)CCCCCCC(=O)N2CCN(CC3(C)CCC(c4ccc(Cl)cc4)=C(CN4CCN(c5ccc(C(=O)NS(=O)(=O)c6ccc(N[C@H](CCN7CCOCC7)CSc7ccccc7)c(S(=O)(=O)C(F)(F)F)c6)cc5)CC4)C3)CC2)C(C)(C)C)cc1 (stereo partly drawn) [I-395]	100 to 1000
> 75	< 10	> 75	10 to 100	< 100	Cc1ncsc1-c1ccc([C@H](C)NC(=O)[C@@H]2C[C@@H](O)CN2C(=O)[C@@H](NC(=O)C2CCN(c3ccc(S(=O)(=O)NC(=O)c4nc(N5CCc6cccc(C(=O)Nc7nc8ccccc8s7)c6C5)ccc4-c4cnn(CC5CCCCC5)c4C)cc3)CC2)C(C)(C)C)cc1 [I-195]	1000 to 10000
> 75	< 10	50 to 75	100 to 500	< 100	Cc1ncsc1-c1ccc(CNC(=O)[C@@H]2C[C@@H](O)CN2C(=O)[C@@H](NC(=O)C2(F)CC2)C(C)(C)C)c(OCCC2CCN(CC[C@H](CSc3ccccc3)Nc3ccc(S(=O)(=O)NC(=O)c4ccc(N5CCN(CC6=C(c7ccc(Cl)cc7)CCC(C)(C)C6)CC5)cc4)cc3S(=O)(=O)C(F)(F)F)CC2)c1 [I-183]	> 10000
> 75	< 10	> 75	10 to 100	< 100	Cc1ncsc1-c1ccc([C@H](C)NC(=O)[C@@H]2C[C@@H](O)CN2C(=O)[C@@H](NC(=O)CCc2ccc(S(=O)(=O)NC(=O)c3nc(N4CCc5cccc(C(=O)Nc6nc7ccccc7s6)c5C4)ccc3-c3cnn(CC4CCCCC4)c3C)cc2)C(C)(C)C)cc1 [I-123]	1000 to 10000
> 75	10 to 100	< 50	> 1000	< 100	Cc1ncsc1-c1ccc(CNC(=O)[C@@H]2C[C@@H](O)CN2C(=O)[C@@H](NC(=O)CCCCCC(=O)N2CCN(CC[C@H](CSc3ccccc3)Nc3ccc(S(=O)(=O)NC(=O)c4ccc(N5CCN(CC6=C(c7ccc(Cl)cc7)CCC(C)(C)C6)CC5)cc4)cc3S(=O)(=O)C(F)(F)F)CC2)C(C)(C)C)cc1 [I-389]	1000 to 10000
